# Measurements reported in patent US20100152434A1, “Protein Kinase-binding Nucleosides and Associated Methods” (priority 2007, published 2010).
# Like-named read-outs stand apart in the source and are kept apart here.
# What was measured:
# HOP-62 = conditions: HOP-62
# OVCAR-4 [1] = system: OVCAR-4
# 788-0 = conditions: 786-0
# ACHN [2] = system: ACHN
# RXF 393 = conditions: RXF 393
# RPMI-8226 = assay: cells; conditions: Homo sapiens
# NCI-H522 = assay: cells; conditions: Homo sapiens
# COLO 205 = assay: cells; conditions: Homo sapiens
# HCT-116 = assay: cells; conditions: Homo sapiens
# KM12 = assay: cells; conditions: Homo sapiens
# OVCAR-4 [3] = assay: cells; conditions: Homo sapiens
# OVCAR-5 = assay: cells; conditions: Homo sapiens
# SK-OV-3 = assay: cells; conditions: Homo sapiens
# A498 = assay: cells; conditions: Homo sapiens
# ACHN [4] = assay: cells; conditions: Homo sapiens
# CAKI-1 = assay: cells; conditions: Homo sapiens
# T-47D = assay: cells; conditions: Homo sapiens, T47D
smiles,measurement,setting,value
"CNC(=O)NC[C@H]1O[C@@H](n2cnc3c(NC(=O)Nc4ccccc4)ncnc32)[C@H](O[Si](C)(C)C(C)(C)C)[C@@H]1CC(=O)N(C)OC [Compound 13, 2′-O-(tert-Butyldimethylsilyl)-3′,5′-dideoxy-3′-[(N-methoxy-N-methylcarboxamido)methyl]-5′-[(N-methylcarbamoyl)amino]-N^6-(N-phenylcarbamoyl)adenosine]",TGI,CCRF-CEM,>1.00E−4 Molar
same,Percent Growth,CCRF-CEM; Log10 Concentration −4.0,23%
same,Percent Growth,CCRF-CEM; Log10 Concentration −5.0,39%
same,Percent Growth,CCRF-CEM; Log10 Concentration −6.0,96%
same,Percent Growth,CCRF-CEM; Log10 Concentration −7.0,100%
same,Percent Growth,CCRF-CEM; Log10 Concentration −8.0,101%
same,TGI,EKVX,>1.00E−4 Molar
same,Percent Growth,EKVX; Log10 Concentration −4.0,36%
same,Percent Growth,EKVX; Log10 Concentration −5.0,60%
same,Percent Growth,EKVX; Log10 Concentration −6.0,95%
same,Percent Growth,EKVX; Log10 Concentration −7.0,95%
same,Percent Growth,EKVX; Log10 Concentration −8.0,94%
same,TGI,HOP-62,>1.00E−4 Molar
same,Percent Growth,HOP-62; Log10 Concentration −4.0,28%
same,Percent Growth,HOP-62; Log10 Concentration −5.0,64%
same,Percent Growth,HOP-62; Log10 Concentration −6.0,86%
same,Percent Growth,HOP-62; Log10 Concentration −7.0,88%
same,Percent Growth,HOP-62; Log10 Concentration −8.0,92%
same,TGI,NCI-H460,>1.00E−4 Molar
same,Percent Growth,NCI-H460; Log10 Concentration −4.0,25%
same,Percent Growth,NCI-H460; Log10 Concentration −5.0,44%
same,Percent Growth,NCI-H460; Log10 Concentration −6.0,90%
same,Percent Growth,NCI-H460; Log10 Concentration −7.0,93%
same,Percent Growth,NCI-H460; Log10 Concentration −8.0,96%
same,TGI,SF-539,>1.00E−4 Molar
same,Percent Growth,SF-539; Log10 Concentration −4.0,23%
same,Percent Growth,SF-539; Log10 Concentration −5.0,65%
same,Percent Growth,SF-539; Log10 Concentration −6.0,89%
same,Percent Growth,SF-539; Log10 Concentration −7.0,94%
same,Percent Growth,SF-539; Log10 Concentration −8.0,96%
same,TGI,LOX IMVI,>1.00E−4 Molar
same,Percent Growth,LOX IMVI; Log10 Concentration −4.0,35%
same,Percent Growth,LOX IMVI; Log10 Concentration −5.0,43%
same,Percent Growth,LOX IMVI; Log10 Concentration −6.0,94%
same,Percent Growth,LOX IMVI; Log10 Concentration −7.0,96%
same,Percent Growth,LOX IMVI; Log10 Concentration −8.0,97%
same,TGI,M14,>1.00E−4 Molar
same,Percent Growth,M14; Log10 Concentration −4.0,18%
same,Percent Growth,M14; Log10 Concentration −5.0,57%
same,Percent Growth,M14; Log10 Concentration −6.0,91%
same,Percent Growth,M14; Log10 Concentration −7.0,98%
same,Percent Growth,M14; Log10 Concentration −8.0,98%
same,TGI,IGROV1,6.57E−5 Molar
same,Percent Growth,IGROV1; Log10 Concentration −4.0,−6%
same,Percent Growth,IGROV1; Log10 Concentration −5.0,26%
same,Percent Growth,IGROV1; Log10 Concentration −6.0,82%
same,Percent Growth,IGROV1; Log10 Concentration −7.0,89%
same,Percent Growth,IGROV1; Log10 Concentration −8.0,89%
same,TGI,OVCAR-4 [1],>1.00E−4 Molar
same,Percent Growth,OVCAR-4 [1]; Log10 Concentration −4.0,46%
same,Percent Growth,OVCAR-4 [1]; Log10 Concentration −5.0,60%
same,Percent Growth,OVCAR-4 [1]; Log10 Concentration −6.0,96%
same,Percent Growth,OVCAR-4 [1]; Log10 Concentration −7.0,100%
same,Percent Growth,OVCAR-4 [1]; Log10 Concentration −8.0,100%
same,TGI,788-0,>1.00E−4 Molar
same,Percent Growth,788-0; Log10 Concentration −4.0,8%
same,Percent Growth,788-0; Log10 Concentration −5.0,48%
same,Percent Growth,788-0; Log10 Concentration −6.0,93%
same,Percent Growth,788-0; Log10 Concentration −7.0,92%
same,Percent Growth,788-0; Log10 Concentration −8.0,95%
same,TGI,ACHN [2],>1.00E−4 Molar
same,Percent Growth,ACHN [2]; Log10 Concentration −4.0,23%
same,Percent Growth,ACHN [2]; Log10 Concentration −5.0,55%
same,Percent Growth,ACHN [2]; Log10 Concentration −6.0,95%
same,Percent Growth,ACHN [2]; Log10 Concentration −7.0,102%
same,Percent Growth,ACHN [2]; Log10 Concentration −8.0,107%
same,TGI,RXF 393,3.80E−5 Molar
same,Percent Growth,RXF 393; Log10 Concentration −4.0,−36%
same,Percent Growth,RXF 393; Log10 Concentration −5.0,49%
same,Percent Growth,RXF 393; Log10 Concentration −6.0,98%
same,Percent Growth,RXF 393; Log10 Concentration −7.0,100%
same,Percent Growth,RXF 393; Log10 Concentration −8.0,103%
same,TGI,DU-145,>1.00E−4 Molar
same,Percent Growth,DU-145; Log10 Concentration −4.0,16%
same,Percent Growth,DU-145; Log10 Concentration −5.0,60%
same,Percent Growth,DU-145; Log10 Concentration −6.0,104%
same,Percent Growth,DU-145; Log10 Concentration −7.0,112%
same,Percent Growth,DU-145; Log10 Concentration −8.0,107%
same,TGI,MCF7,>1.00E−4 Molar
same,Percent Growth,MCF7; Log10 Concentration −5.0,34%
same,Percent Growth,MCF7; Log10 Concentration −6.0,96%
same,Percent Growth,MCF7; Log10 Concentration −7.0,95%
same,Percent Growth,MCF7; Log10 Concentration −8.0,91%
same,GI50,RPMI-8226; RPMI-8226,1.58 µM
same,CC50,"RPMI-8226; RPMI-8226, read-out: LC50",> 100 µM
same,GI50,NCI-H522; NCI-H522,11.1 µM
same,CC50,"NCI-H522; NCI-H522, read-out: LC50",> 100 µM
same,GI50,COLO 205; COLO 205,12.3 µM
same,CC50,"COLO 205; COLO 205, read-out: LC50",> 100 µM
same,GI50,HCT-116; HCT-116,4.2 µM
same,CC50,"HCT-116; HCT-116, read-out: LC50",> 100 µM
same,GI50,KM12; KM12,23.9 µM
same,CC50,"KM12; KM12, read-out: LC50",> 100 µM
same,GI50,OVCAR-4 [3]; OVCAR-4,53 µM
same,CC50,"OVCAR-4 [3]; OVCAR-4, read-out: LC50",> 100 µM
same,GI50,OVCAR-5; OVCAR-5,38.2 µM
same,CC50,"OVCAR-5; OVCAR-5, read-out: LC50",> 100 µM
same,GI50,SK-OV-3; SK-OV-3,52.7 µM
same,CC50,"SK-OV-3; SK-OV-3, read-out: LC50",> 100 µM
same,GI50,A498; A498,3.87 µM
same,CC50,"A498; A498, read-out: LC50",> 100 µM
same,GI50,ACHN [4],14.4 µM
same,CC50,ACHN [4]; read-out: LC50,> 100 µM
same,GI50,CAKI-1; CAKI-1,53.8 µM
same,CC50,"CAKI-1; CAKI-1, read-out: LC50",> 100 µM
same,GI50,T-47D,13.9 µM
same,CC50,T-47D; read-out: LC50,> 100 µM
